Molecular target: T1, His-tagged recombinant human TrkA (Homo sapiens, UniProt P04629)
T1 construct: 6HIS tagged cytoplasmic domain from Invitrogen, Catalog No. PV3144; purchased Invitrogen PV3144
Experiment: TrkA Kinase Binding Assay (LanthaScreen Eu)
Details: averaged IC50; TR-FRET binding, 60 min, 22° C.; read-out: TrkA Enzyme IC50
Outline: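 TR-FRET tracer displacement: 5 nM His-tagged TrkA cytoplasmic domain with 4 nM Tracer 236, biotinylated anti-His and Eu-streptavidin in pH 7.5 MOPS buffer, 2% DMSO, 60 min at 22 °C. 665/615 nm emission ratio gave percent of control; IC50 from four-parameter fit.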

T1 sequence (P04629 440-796 limits assumed): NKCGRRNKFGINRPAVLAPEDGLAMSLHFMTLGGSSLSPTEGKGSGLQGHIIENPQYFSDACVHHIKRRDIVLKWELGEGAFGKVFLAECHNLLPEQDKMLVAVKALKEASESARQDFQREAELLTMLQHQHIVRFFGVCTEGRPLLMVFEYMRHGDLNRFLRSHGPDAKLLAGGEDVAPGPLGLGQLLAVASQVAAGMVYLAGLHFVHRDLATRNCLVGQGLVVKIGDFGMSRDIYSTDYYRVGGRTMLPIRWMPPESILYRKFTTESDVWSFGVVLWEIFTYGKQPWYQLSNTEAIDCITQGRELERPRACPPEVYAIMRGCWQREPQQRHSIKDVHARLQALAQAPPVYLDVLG

Row | Compound | IC50 [nM]
1 | COCc1cc(CNC(=O)Nc2c(C)c(-c3cnn(C)c3)nn2-c2ccccc2)c(C2CCC2)cc1F [Example 117, 1-(2-cyclobutyl-4-fluoro-5-(methoxymethyl)benzyl)-3-(1′,4-dimethyl-1-phenyl-1H,1′H-[3,4′-bipyrazol]-5-yl)urea] | < 100
2 | COCc1ccc(C2CCC2)c(CNC(=O)Nc2c(C)c(=O)[nH]n2-c2ccccc2)c1 [Example 122, 1-(2-cyclobutyl-5-(methoxymethyl)benzyl)-3-(4-methyl-5-oxo-2-phenyl-2,5-dihydro-1H-pyrazol-3-yl)urea] | < 100
3 | COCc1ccc(C2CCC2)c(CNC(=O)Nc2c(C)c(OC[C@H]3COC(C)(C)O3)nn2-c2ccccc2)c1 [Example 124, (S)-1-(2-cyclobutyl-5-(methoxymethyl)benzyl)-3-(3-((2,2-dimethyl-1,3-dioxolan-4-yl)methoxy)-4-methyl-1-phenyl-1H-pyrazol-5-yl)urea] | < 100
4 | COCc1ccc(C2CCC2)c(CNC(=O)Nc2c(C)c(OC[C@H](O)CO)nn2-c2ccccc2)c1 [Example 125, (R)-1-(2-cyclobutyl-5-(methoxymethyl)benzyl)-3-(3-(2,3-dihydroxypropoxy)-4-methyl-1-phenyl-1H-pyrazol-5-yl)urea] | < 100
5 | COCc1ccc(C2CCC2)c(CNC(=O)Nc2c(C)c(OCc3nnc(C)o3)nn2-c2ccccc2)c1 [Example 126, 1-(2-cyclobutyl-5-(methoxymethyl)benzyl)-3-(4-methyl-3-((5-methyl-1,3,4-oxadiazol-2-yl)methoxy)-1-phenyl-1H-pyrazol-5-yl)urea] | < 100
6 | CCSc1ccc(C2CCC2)c(CNC(=O)Nc2c(C)c(-c3cnn(C)c3)nn2-c2ccccc2)c1 [Example 128, 1-(2-cyclobutyl-5-(ethylthio)benzyl)-3-(1′,4-dimethyl-1-phenyl-1H,1′H-[3,4′-bipyrazol]-5-yl)urea] | 100 to 1000
7 | COCc1ccc(OC(F)(F)F)c(CNC(=O)Nc2c(C)c(OC3CN4CCC3CC4)nn2-c2ccccc2)c1 (stereo not drawn) [Example 130, 1-(5-(methoxymethyl)-2-(trifluoromethoxy)benzyl)-3-(4-methyl-1-phenyl-3-(quinuclidin-3-yloxy)-1H-pyrazol-5-yl)urea] | < 100
8 | COCc1ccc(OC(F)(F)F)c(CNC(=O)Nc2c(C)c(OC[C@@H]3CCC(=O)N3)nn2-c2ccccc2)c1 [Example 131, (S)-1-(5-(methoxymethyl)-2-(trifluoromethoxy)benzyl)-3-(4-methyl-3-((5-oxopyrrolidin-2-yl)methoxy)-1-phenyl-1H-pyrazol-5-yl)urea] | < 100
9 | COCc1cccc(C(NC(=O)Nc2c(C)c(-c3cnn(C)c3)nn2-c2ccccc2)C(F)(F)F)c1 (stereo not drawn) [Example 132] | > 1000

The remaining lines, values ahead:

Row | IC50 [nM] | Compound
10 | < 100 | Cc1c(OCC2CCN(C)CC2)nn(-c2ccccc2)c1NC(=O)NCc1ccccc1OC(F)(F)F [Example 115, 1-(4-methyl-3-((1-methylpiperidin-4-yl)methoxy)-1-phenyl-1H-pyrazol-5-yl)-3-(2-(trifluoromethoxy)benzyl)urea]
11 | < 100 | COCc1ccc(-c2ccccc2)c(CNC(=O)Nc2c(C)c(-c3cnn(C)c3)nn2-c2ccccc2)c1 [Example 116, 1-(1′,4-dimethyl-1-phenyl-1H,1′H-[3,4′-bipyrazol]-5-yl)-3-((4-(methoxymethyl)-[1,1′-biphenyl]-2-yl)methyl)urea]
12 | 100 to 1000 | COCc1ccc(CN)c(CNC(=O)Nc2c(C)c(-c3cnn(C)c3)nn2-c2ccccc2)c1 [Example 118, 1-(2-(aminomethyl)-5-(methoxymethyl)benzyl)-3-(1′,4-dimethyl-1-phenyl-1H,1′H-[3,4′-bipyrazol]-5-yl)urea]
13 | 100 to 1000 | COCc1ccc(CNCC(F)(F)F)c(CNC(=O)Nc2c(C)c(-c3cnn(C)c3)nn2-c2ccccc2)c1 [Example 119, 1-(1′,4-dimethyl-1-phenyl-1H,1′H-[3,4′-bipyrazol]-5-yl)-3-(5-(methoxymethyl)-2-(((2,2,2-trifluoroethyl)amino)methyl)benzyl)urea]
14 | < 100 | COCc1ccc(C2CCC2)c(CNC(=O)Nc2c3c(nn2-c2ccccc2)CSC3)c1 [Example 120, 1-(2-cyclobutyl-5-(methoxymethyl)benzyl)-3-(2-phenyl-4,6-dihydro-2H-thieno[3,4-c]pyrazol-3-yl)urea]
15 | < 100 | COCc1ccc(C2CCC2)c(CNC(=O)Nc2c3c(nn2-c2ccccc2)CS(=O)(=O)C3)c1 [Example 121, 1-(2-cyclobutyl-5-(methoxymethyl)benzyl)-3-(5,5-dioxido-2-phenyl-4,6-dihydro-2H-thieno[3,4-c]pyrazol-3-yl)urea]
16 | < 100 | CSCc1ccc(C2CCC2)c(CNC(=O)Nc2c(C)c(-c3cnn(C)c3)nn2-c2ccccc2)c1 [Example 123, 1-(2-cyclobutyl-5-((methylthio)methyl)benzyl)-3-(1′,4-dimethyl-1-phenyl-1H,1′H-[3,4′-bipyrazol]-5-yl)urea]
17 | 100 to 1000 | CSc1ccc(C2CCC2)c(CNC(=O)Nc2c(C)c(-c3cnn(C)c3)nn2-c2ccccc2)c1 [Example 127, 1-(2-cyclobutyl-5-(methylthio)benzyl)-3-(1′,4-dimethyl-1-phenyl-1H,1H-[3,4′-bipyrazol]-5-yl)urea]
18 | < 100 | COCc1cccc(C(Cc2ccccc2)NC(=O)Nc2c(C)c(-c3cnn(C)c3)nn2-c2ccccc2)c1 (stereo not drawn) [Example 129, 1-(1′,4-dimethyl-1-phenyl-1H,1′H-[3,4′-bipyrazol]-5-yl)-3-(1-(3-(methoxymethyl)phenyl)-2-phenylethyl)urea]

— patent US9969694B2, “N-(arylalkyl)-N′-pyrazolyl-urea, thiourea, guanidine and cyanoguanidine compounds as TrkA kinase inhibitors” (Array BioPharma Inc., priority 2012, dated 2018)
